Results as given in patent US20250009856A1, “METHODS FOR TREATING RESPIRATORY DISEASES” (MUCPharm Pty Ltd, priority 2021, published 2025).
Values joined by “and” are separate entries in the source; they are usually repeats but may differ in a detail not shown here. Identical values can stand only once.

Columns and labels:
[1] = Particle size distribution of aerosols by laser diffraction, Pari LC Sprint nebulizer; assay type: physicochemical; conditions: mean
Protocol: The particle size distributions (PSD) of 5 formulations containing bromelain and acetylcysteine at different concentrations were determined. The formulations were aerosolized using a PARI TurboBOY SX compressor, combined with the Pari LC Sprint nebulizer (PARI GmbH, USA). The nebulizer was connected to a USP induction port (throat), and particle size was measured at flow rate of 15 L/min in Spraytec particle sizer (Malvern Instruments, Malvern, UK). Measurements were performed in triplicate. Results are expressed as D10, D50 and D90, indicating the particle diameter at 10, 50 and 90% in the cumulative distribution.
The formulations were prepared in saline (0.9% w/v) and kept at −20° C. prior to analysis. The formulations tested were: • 1. Control: Saline (sodium chloride 0.9% w/v) • 2. Low Concentration of Ac (8 mg/mL) • 3. High Concentration of Ac (60 mg/mL) • 4. Brom at 50 μg/mL • 5. Combination 1: Low Ac (8 mg/mL)+Brom (50 μg/mL) • 6. Combination 2: High Ac (60 mg/mL)+Brom (50 μg/mL)

[2] = Dynamic viscosity (capillary tube) after aerosol treatment; conditions: AS; for Dynamic viscosity (γ), After: before 1.382 ± 0.013
Protocol: Artificial sputum was prepared following protocol as detailed by […] et al (Kirchner, S., et al., Use of artificial sputum medium to test antibiotic efficacy against Pseudomonas aeruginosa in conditions more relevant to the cystic fibrosis lung. Journal of visualized experiments: JOVE, 2012 (64)). Briefly 250 mg of porcine mucin, 200 mg of sperm DNA, 295 mg of diethylene triamine pentaacetic acid (DPTA), 25 mg sodium chloride, 110 mg potassium chloride, 140 mg Tris base were mixed in a volume of 45 ml of distilled water and pH adjusted to 7.0 using Trisbase. The volume of the solution was then adjusted to 50 ml. Further dilutions were then carried out to adjust viscosity as desired. Dynamic viscosity (Y) of sputum was measured using the capillary tube method as outlined in […]. and G. Castellano, Determination of the kinematic viscosity by the liquid rise in a capillary tube. […] Ensino de Física, 2013. 35. Artificial sputa (AS) were prepared as detailed above, and 1.5 ml of artificial sputum was carefully emptied into an endotracheal tube (in triplicates). A volume of 6.0 ml of NAC 10 mg/ml in PBS (pH.7.0) in triplicate was aerosolised using a nebulizer and passed over the sputum samples in the endotracheal tubes kept at 37° C. in a water bath. Similarly, the experiments were repeated using NAC 20 mg/ml in PBS (pH.7.0). The controls only received PBS (pH 7.0). The aerosol delivery time to empty 6.0 ml for each treatment was 25 min. The dynamic viscosity of the sputa was measured before and after using the capillary tube method, whilst the pipette flow time was also measured as described earlier using a 0.5 ml glass pipette. Samples were equilibrated to 25° C. before measurement A similar treatment as in the experiment described above for NAC was carried out using Bromelain (125 and 250 μg/ml) in PBS (pH.7.0) along with control using PBS (pH.7.0). Both dynamic viscosity and pipette flow time was measured as outlined earlier for both artificial and PMP simulated sputa models. Using a combination of NAC (20 mg/ml) with either 125 or 250 μg/ml Bromelain in PBS (pH.7.0), a similar investigation was carried out as outlined earlier and measurements were made for both artificial and simulated sputa models. D=(TREATED)-(UNTREATED/(UNTREATED)×100.

[3] = Dynamic viscosity after mixing with BromAc, DNase and combinations; conditions: agent without DNASE: BR(25 ug/ml), NAC(20 mg/ml), or BR(250 ug/ml) + NAC(20 ug/ml); 1 hour, 37 deg C; Cont(PBS) 2.36
Protocol: Artificial sputa was prepared following methodology with ingredients as in earlier experiments. To 1.5 ml of artificial sputa in a vial was added 0.5 ml of reagent containing the required bromelain, NAC, DNase and their combinations. Control vials included 0.5 ml of PBS only. The mixture was vortex mixed and incubated in a shaker water bath at 37 deg C. At the end of 1 hour, the samples were retrieved, vortex mixed and equilibrated to ambient room temperature before measuring dynamic viscosity and pipette flow.
Dynamic viscosity was determined using the capillary tube method as in earlier experiments, whilst the pipette flow was evaluated using a 0.5 ml pipette inclined at 60 deg angle. The pipette flow was calculated as shown below.

Structure (SMILES): CC(=O)N[C@@H](CS)C(=O)O [NAC, N-acetylcysteine]
- D10 ([1]; NAC 8 mg/mL in saline): 1.19 µm
- D50 ([1]; NAC 8 mg/mL in saline): 3.26 μm
- D90 ([1]; NAC 8 mg/mL in saline): 8.23c
- D10 ([1]; NAC 60 mg/mL in saline): 1.12 µm
- D50 ([1]; NAC 60 mg/mL in saline): 2.87b μm
- D90 ([1]; NAC 60 mg/mL in saline): 7.47 µm
- D (%), decrease of dynamic viscosity (γ) ([2]; aerosol NAC 10 mg/ml): 6.0% and 6.0 ↓ %
- Dynamic viscosity (γ), After ([2]; aerosol NAC 10 mg/ml, 6.0 ml over 25 min, 37° C.): 1.300 ± 0.002 cSt
- D (%), decrease of dynamic viscosity (γ) ([2]; aerosol NAC 20 mg/ml): 9.8% and 10% and 9.8 ↓ %
- Dynamic viscosity (γ), After ([2]; aerosol NAC 20 mg/ml): 1.247 ± 0.041 cSt
- Dynamic viscosity (¥) [3]: 1.640 cSt
